In patent US8642657B2 (Gruenenthal GmbH, priority 2003, dated 2014):
pKi: −log10 of the molar value.

Legend:
rat VR1 [1] = molecular target: T1, rat VR1 (Rattus norvegicus, UniProt O35433); assay: [3H]resiniferatoxin (RTX) competition binding assay, VR1-transfected CHO cells; conditions: for Ki: competition with [3H]RTX, rat VR1 in CHO cells, read-out: Ki (nM) Binding Affinity
T1 construct: expressed in transfected cells
Method: The pUHG102 VR1 plasmid was transfected into CHO cells containing the pTet Off regulatory plasmid (Clontech). In these cells, expression of the VR1 is repressed in the presence of tetracycline but is induced upon removal of the antibiotic. Stable clones were isolated in culture medium containing puromycin (10 μg/mL) and maintained in HAM F12 medium supplemented with tetracycline (1 μg/mL), 5 μg/ml geniticin, 25 mM HEPES, 10% FBS. Cells utilized for assays were grown in culture medium without antibiotic for 48 h before use. Cells were seeded in T75 cell culture flasks in media without antibiotics and grown to approximately 90% confluence. The flasks were then washed with PBS and harvested in 0.25% trypsin, 1 mM EDTA. The cells were pelleted by gentle centrifugation and stored at −20° C. until assay.
Competition Binding Assay
Binding studies with [^3H]resiniferatoxin (RTX) were carried out as described previously with minor modifications (Szallasi et al., 1992). Binding assay mixtures were set up on ice and contained 50-100 pM [^3H]RTX, various concentrations of competing ligands, 0.25 mg/mL BSA (Cohn fraction V), and about 5×10^5 VR1-transfected cells. The final volume was adjusted to 350 μL with DPBS with Ca^2+ and Mg^2+ and 0.25 mg/mL bovine serum albumin. Non-specific binding was determined in the presence of 100 nM nonradioactive RTX. The binding reaction was initiated by transferring the assay mixtures to a 37° C. water bath and was terminated after a 60 min incubation period by cooling the tubes on ice. To reduce non-specific binding, 200 μg/ml α-glycoprotein was added. Membrane-bound RTX was then separated from the free by pelleting the membranes in a Beckman 12 benchtop centrifuge (15 min, maximal velocity), the tips of the tubes containing the pellets were cut off, and the radioactivity was determined by scintillation counting. Equilibrium binding parameters (Ki and cooperativity) were determined by fitting the Hill equation to the measured values with the aid of the program MicroCal Origin 6.0.
(§1) Initial stocks were dissolved in DMSO. For the binding assays, compounds were diluted in with DPBS with Ca^2+ and Mg^2+ and 0.25 mg/mL bovine serum albumin. For the calcium uptake assays, compounds were diluted in DMEM with 0.25 mg/mL bovine serum albumin.

rat VR1 [2] = molecular target: T1, rat VR1; assay: 45Ca2+-uptake assay in CHO/VR1 cells, antagonism of capsaicin-stimulated uptake; assay type: cell-based; conditions: 45Ca2+ uptake stimulated by 50 nM capsaicin
Method: as §1
Molecules were characterized to determine whether they were full agonists, partial agonists, or antagonists. For studies of ^45Ca^2+ uptake by CHO/VR1 cells (Tet-off cells), the cells were plated in 24-well plates to yield a cell density 20-40% of that required to produce confluence. The next day the medium was changed to remove the tetracycline and induce VR1 expression. Experiments were performed approximately 36-40 hours after induction. For ^45Ca^2+ uptake assay, cells were incubated for 5 min at 37° C. in a total volume of 400 μL of serum free DMEM (containing 1.8 mM CaCl2) in the presence of 0.25 mg/mL BSA (Sigma), 1 μCi/mL ^45Ca^2+ (5-30 Ci/g from ICN, CA), and increasing concentrations of the compound to be tested. Immediately after the incubation, extracellular ^45Ca^2+ was removed by washing the cells three times with cold DPBS (containing 1.8 mM CaCl2). Then 400 μl RIPA buffer (50 mM Tris pH 7.4; 150 mM NaCl; 1% Triton X-100; 0.1% SDS; 1% sodium deoxycholate) was added to each well in order to lyse the cells. Plates were shaken slowly for 20 min; then 306 μL of cell lysate was transferred from each well into a scintillation vial and radioactivity was determined by scintillation counting. For each data point in each experiment, four wells were assayed. Data from these experiments were analyzed by computer fit to the Hill equation. At least 3 separate experiments were carried out for each compound. In order to determine antagonist activity, studies were performed in exactly the same fashion with the exception that 50 nM capsaicin was added to the assay mixture to stimulate ^45Ca^2+ uptake.

T1 sequence (O35433 whole entry): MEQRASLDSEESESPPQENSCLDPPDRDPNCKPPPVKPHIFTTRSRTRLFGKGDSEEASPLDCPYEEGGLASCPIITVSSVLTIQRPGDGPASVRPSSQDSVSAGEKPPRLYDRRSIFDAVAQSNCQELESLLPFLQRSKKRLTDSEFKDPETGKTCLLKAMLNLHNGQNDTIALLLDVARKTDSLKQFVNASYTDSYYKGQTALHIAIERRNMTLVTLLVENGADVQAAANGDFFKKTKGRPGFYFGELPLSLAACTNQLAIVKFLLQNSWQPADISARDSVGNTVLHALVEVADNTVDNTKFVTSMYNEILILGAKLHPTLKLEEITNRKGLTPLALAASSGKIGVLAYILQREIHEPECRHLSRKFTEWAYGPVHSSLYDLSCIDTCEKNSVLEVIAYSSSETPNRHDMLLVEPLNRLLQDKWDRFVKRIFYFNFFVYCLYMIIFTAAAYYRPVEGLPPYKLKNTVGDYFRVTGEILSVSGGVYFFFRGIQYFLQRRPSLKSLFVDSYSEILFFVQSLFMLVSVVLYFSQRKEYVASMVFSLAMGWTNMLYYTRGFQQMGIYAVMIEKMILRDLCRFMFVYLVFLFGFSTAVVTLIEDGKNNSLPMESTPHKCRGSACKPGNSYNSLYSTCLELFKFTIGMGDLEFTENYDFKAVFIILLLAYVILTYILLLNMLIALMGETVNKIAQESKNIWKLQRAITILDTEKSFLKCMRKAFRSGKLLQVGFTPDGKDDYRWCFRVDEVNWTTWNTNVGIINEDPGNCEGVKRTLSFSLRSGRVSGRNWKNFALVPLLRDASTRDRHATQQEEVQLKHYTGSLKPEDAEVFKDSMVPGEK

| Compound | pKi (rat VR1 [1]) | melting point [°C] | Ki (rat VR1 [2]) [nM] | Ki (rat VR1 [1]) [nM] |
| --- | --- | --- | --- | --- |
| CC(C(=O)NCc1ccc(C(C)(C)C)cc1)c1ccc(NS(C)(=O)=O)c(F)c1 (stereo not shown) [1-51, N-(4-tert-Butylbenzyl)-2-[3-fluoro-4-(methylsulfonylamino)phenyl]propionamide] | 7.23 | 52 to 54 | 5.47 |  |
| CC(C(=O)NCc1ccc(C(C)(C)C)cc1)c1ccc(NS(C)(=O)=O)c(Cl)c1 (stereo not shown) [1-52, N-(4-tert-Butylbenzyl)-2-[3-chloro-4-(methylsulfonylamino)phenyl]propionamide] |  | 126 to 129 | 29.5 | 30.7 |
| CC(C(=O)NCc1ccc(C(C)(C)C)cc1)c1ccc(NS(C)(=O)=O)c(Br)c1 (stereo not shown) [1-53, N-(4-tert-Butylbenzyl)-2-[3-bromo-4-(methylsulfonylamino)phenyl]propionamide] |  | 66 to 67 | 24.9 | 7.41 |
| CC(C(=O)NCc1ccc(C(C)(C)C)cc1)c1ccc(NS(C)(=O)=O)c(I)c1 (stereo not shown) [1-54, N-(4-tert-Butylbenzyl)-2-[3-iodo-4-(methylsulfonylamino)phenyl]propionamide] |  | 71 | 29.9 | 23.3 |
| CC(C(=O)NCc1ccc(C(C)(C)C)cc1)c1cc(F)c(NS(C)(=O)=O)c(F)c1 (stereo not shown) [1-55, N-(4-tert-Butylbenzyl)-2-[3,5-difluoro-4-(methylsulfonylamino)phenyl]propionamide] |  | 80 to 81 | 7.38 | 19.9 |
| CC(C(=O)NCc1ccc(C(C)(C)C)cc1)c1ccc(NS(C)(=O)=O)c(C#N)c1 (stereo not shown) [1-56, N-(4-tert-Butylbenzyl)-2-[3-cyano-4-(methylsulfonylamino)phenyl]propionamide] |  | 102 to 105 | 467 | 344 |
| COC(=O)c1cc(C(C)C(=O)NCc2ccc(C(C)(C)C)cc2)ccc1NS(C)(=O)=O (stereo not shown) [1-59, N-(4-tert-Butylbenzyl)-2-[3-(methoxycarbonyl)-4-(methylsulfonylamino)phenyl]propionamide] |  | 142 to 144 | 951 | 1610 |
| COc1cc(C(C)C(=O)NCc2ccc(C(C)(C)C)cc2)ccc1NS(C)(=O)=O (stereo not shown) [1-65, N-(4-tert-Butylbenzyl)-2-[3-methoxy-4-(methylsulfonylamino)phenyl]propionamide] |  | 74 to 76 | 232 | 536 |
| CC(C(=O)NCc1ccc(C(C)(C)C)cc1)c1ccc(NS(C)(=O)=O)cc1F (stereo not shown) [1-66, N-(4-tert-Butylbenzyl)-2-[2-fluoro-4-(methylsulfonylamino)phenyl]propionamide] |  | 111 to 113 | 120 | 358 |
| CC(C(=O)NCc1ccc(C(C)(C)C)cc1)c1ccc(NS(C)(=O)=O)cc1Cl (stereo not shown) [1-67, N-(4-tert-Butylbenzyl)-2-[2-chloro-4-(methylsulfonylamino)phenyl]propionamide] |  | 134 to 136 | 4480 | 1420 |
| CC(C(=O)NCc1ccc(C(C)(C)C)cc1)c1ccc(NS(C)(=O)=O)cc1 (stereo not shown) [2-7, N-(4-tert-Butylbenzyl)-2-[4-(methylsulfonylamino)phenyl]propionamide] |  | 77 to 79 | 17.5 | 105 |
| CC(C(=O)NCc1ccc(Cl)cc1)c1ccc(NS(C)(=O)=O)cc1 (stereo not shown) [2-8, N-(4-Chlorobenzyl)-2-[4-(methylsulfonylamino)phenyl]propionamide] | 5.46 | 164 | 1090 |  |
| C[C@@H](C(=O)NCc1ccc(C(C)(C)C)cc1)c1ccc(NS(C)(=O)=O)c(F)c1 [3-6, N-(4-tert-Butylbenzyl)-(2R)-2-[3-fluoro-4-(methylsulfonylamino)phenyl]propionamide] | 6.34 |  | 102 |  |
| Cc1ccc(CCCNC(=O)[C@H](C)c2ccc(NS(C)(=O)=O)c(F)c2)cc1C [4-16, N-[3-(3,4-Dimethylphenyl)propyl]-(2R)-2-[3-fluoro-4-(methylsulfonylamino)phenyl]propionamide] |  |  | 204 | 944 |
| Cc1ccc(CCCNC(=O)[C@@H](C)c2ccc(NS(C)(=O)=O)c(F)c2)cc1C [4-17, N-[3-(3,4-Dimethylphenyl)propyl]-(2S)-2-[3-fluoro-4-(methylsulfonylamino)phenyl]propionamide] | 6.63 |  | 33.7 |  |
| C[C@H](C(=O)NC[C@@H](COC(=O)C(C)(C)C)Cc1ccccc1)c1ccc(NS(C)(=O)=O)c(F)c1 [6-6, N-[(2S)-2-Benzyl-3-(pivaloyloxy)propyl]-(2S)-2-[3-fluoro-4-(methylsulfonylamino)phenyl]propionamide] |  |  | 10 | 20.3 |
| C[C@@H](C(=O)NC[C@@H](COC(=O)C(C)(C)C)Cc1ccccc1)c1ccc(NS(C)(=O)=O)c(F)c1 [6-7, N-[(2S)-2-Benzyl-3-(pivaloyloxy)propyl]-(2R)-2-[3-fluoro-4-(methylsulfonylamino)phenyl]propionamide] |  |  | 205 | 372 |
| C[C@@H](C(=O)NC[C@H](COC(=O)C(C)(C)C)Cc1ccccc1)c1ccc(NS(C)(=O)=O)c(F)c1 [6-8, N-[(2R)-2-Benzyl-3-(pivaloyloxy)propyl]-(2R)-2-[3-fluoro-4-(methylsulfonylamino)phenyl]propionamide] |  |  | 98.3 | 297 |
| C[C@@H](NC(=S)NCc1ccc(C(C)(C)C)cc1)c1ccc(NS(C)(=O)=O)cc1 [16-5, N-(4-t-Butylbenzyl)-N′-{(1R)-1-[4-(methylsulfonylamino)phenyl]ethyl}thiourea] |  |  | 4.52 | 40.8 |
| C[C@@H](NC(=S)NCc1ccc(C(C)(C)C)cc1)c1ccc(NS(C)(=O)=O)c(F)c1 [17-7, (R)—N-(4-t-Butylbenzyl)-N′-{1-[3-fluoro-4-(methylsulfonylamino)phenyl]ethyl}thiourea] | 7.48 |  | 39.4 |  |
| C[C@H](NC(=S)NCc1ccc(C(C)(C)C)cc1)c1ccc(NS(C)(=O)=O)c(F)c1 [17-8, (S)—N-(4-t-Butylbenzyl)-N′-{1-[3-fluoro-4-(methylsulfonylamino)phenyl]ethyl}thiourea] | 5.59 |  | 4310 |  |
| Cc1ccc(CC(CNC(=S)N[C@H](C)c2ccc(NS(C)(=O)=O)cc2)COC(=O)C(C)(C)C)cc1C (stereo partly drawn) [18-6, N-[2-(3,4-Dimethylbenzyl)-3-(pivaloyloxy)propyl]-N′-{(1R)-1-[4-(methylsulfonylamino)phenyl]ethyl}thiourea] | 8.21 |  | 6.86 |  |
| Cc1ccc(C[C@H](CNC(=S)N[C@H](C)c2ccc(NS(C)(=O)=O)cc2)COC(=O)C(C)(C)C)cc1C [18-7, N-[(2R)-2-(3,4-Dimethylbenzyl)-3-(pivaloyloxy)propyl]-N′-{(1R)-1-[4-(methylsulfonylamino)phenyl]ethyl}thiourea] | 7.82 |  | 7.14 |  |
| C[C@@H](NC(=S)N[C@H](COC(=O)C(C)(C)C)Cc1ccccc1)c1ccc(NS(C)(=O)=O)cc1 [19-14, N-[(2S)-3-phenyl-1-pivaloyloxy-2-propyl]-N′-[(R)-α-methyl-4-(methylsulfonylamino)benzy]thiourea] | 6.57 |  | 290 |  |
| Oc1cc2c(cc1O)CN(C(=S)NCCc1ccc(Cl)cc1)CCC2 [capsazepine, reference compound] |  |  | 520 | 1300 |
| N-(4-t-Butylbenzyl)-N-{1-[4-(methylsulfonylamino)phenyl]ethyl}thiourea [15-1] |  |  | 14.7 | 59.3 |
